# Target: T1, ACR-16 (Caenorhabditis elegans, UniProt P48180)
# T1 sequence (P48180 20-498): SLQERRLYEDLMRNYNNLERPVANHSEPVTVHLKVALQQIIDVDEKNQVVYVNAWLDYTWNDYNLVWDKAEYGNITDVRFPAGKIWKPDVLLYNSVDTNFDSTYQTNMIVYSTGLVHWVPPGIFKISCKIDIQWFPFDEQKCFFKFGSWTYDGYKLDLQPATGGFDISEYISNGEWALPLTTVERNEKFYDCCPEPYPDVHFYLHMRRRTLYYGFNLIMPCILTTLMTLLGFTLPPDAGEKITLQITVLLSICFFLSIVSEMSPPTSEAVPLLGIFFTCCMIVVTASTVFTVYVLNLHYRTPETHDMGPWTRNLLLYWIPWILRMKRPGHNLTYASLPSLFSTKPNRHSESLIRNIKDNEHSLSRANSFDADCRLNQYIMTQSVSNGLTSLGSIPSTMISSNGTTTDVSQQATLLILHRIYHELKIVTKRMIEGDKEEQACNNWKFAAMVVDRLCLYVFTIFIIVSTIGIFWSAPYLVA
# Assay: two-electrode voltage clamp, Xenopus oocytes, peak current
# Type: cell-based
row,SMILES,EC50
1,CC(=O)OCC[N+](C)(C)C [acetylcholine],24 µM
2,CN1CCC[C@H]1c1cccnc1 [nicotine],22 µM
